Assay results: ChEMBL document CHEMBL3885881, “DrugMatrix”

Species: Rattus norvegicus
Assay: DrugMatrix - Regimen: Daily Repeat
Format: toxicity, organism-based, Sprague-Dawley
Parameters: regimen Daily Repeat, gender Male, age 6-8 weeks
Conditions: in vivo, po, route oral GAVAGE, […]; for ABSOLUTE BASOPHIL / ABSOLUTE EOSINOPHIL / ABSOLUTE LYMPHOCYTE / ABSOLUTE SEGMENTED NEUTROPHIL / BASOPHIL / EOSINOPHIL / ERYTHROCYTE COUNT / HEMOGLOBIN / LEUKOCYTE COUNT / LYMPHOCYTE / MEAN CORPUSCULAR HEMOGLOBIN / MEAN CORPUSCULAR HEMOGLOBIN CONCENTRATION / MEAN CORPUSCULAR VOLUME / MONOCYTE / NEUTROPHIL / NUCLEATED RED BLOOD CELLS / PLATELET COUNT: tissue Blood; for ALANINE AMINOTRANSFERASE / ALBUMIN / ALKALINE PHOSPHATASE / ASPARTATE AMINOTRANSFERASE / BLOOD UREA NITROGEN / CARBON DIOXIDE / CHLORIDE / CHOLESTEROL / CREATINE PHOSPHOKINASE / CREATININE / GLUCOSE / LACTATE DEHYDROGENASE / LIPASE / PHOSPHORUS / POTASSIUM / SODIUM / TOTAL BILIRUBIN / URIC ACID: tissue Plasma
[1] = 20 mg/kg, 72 h, dose level Low, time 3 day
[2] = 20 mg/kg, 120 h, dose level Low, time 5 day
[3] = 600 mg/kg, 72 h, dose level High, time 3 day
[4] = 600 mg/kg, 120 h, dose level High, time 5 day

Compound: CCCN(CCC)S(=O)(=O)c1ccc(C(=O)O)cc1 [PROBENECID]
- ABSOLUTE BASOPHIL [1]: 0 CELLS/uL
- ABSOLUTE EOSINOPHIL [1]: 143 CELLS/uL
- ABSOLUTE LYMPHOCYTE [1]: 13997.67 CELLS/uL
- ABSOLUTE SEGMENTED NEUTROPHIL [1]: 1155.67 CELLS/uL
- BASOPHIL [1]: 0%
- EOSINOPHIL [1]: 1%
- ERYTHROCYTE COUNT [1]: 5.57 x10E6/uL
- HEMOGLOBIN [1]: 13.7 G/DL
- LEUKOCYTE COUNT [1]: 15.43 x10E3/uL
- LYMPHOCYTE [1]: 90.33%
- MEAN CORPUSCULAR HEMOGLOBIN [1]: 24.67 pg
- MEAN CORPUSCULAR HEMOGLOBIN CONCENTRATION [1]: 39.3 G/DL
- MEAN CORPUSCULAR VOLUME [1]: 62.8 fL
- MONOCYTE [1]: 1%
- NEUTROPHIL [1]: 7.67%
- NUCLEATED RED BLOOD CELLS [1]: 0 /100WBC
- PLATELET COUNT [1]: 1224.33 x10E3/uL
- ALANINE AMINOTRANSFERASE [1]: 70 u/L
- ALBUMIN [1]: 4 G/DL
- ALKALINE PHOSPHATASE [1]: 531.67 u/L
- ASPARTATE AMINOTRANSFERASE [1]: 87.67 u/L
- BLOOD UREA NITROGEN [1]: 11 mg/dL
- CARBON DIOXIDE [1]: 33.67 mmol/L
- CHLORIDE [1]: 100.67 MEQ/L
- CHOLESTEROL [1]: 81 mg/dL
- CREATINE PHOSPHOKINASE [1]: 196.67 u/L
- CREATININE [1]: 0.13 mg/dL
- GLUCOSE [1]: 157.33 mg/dL
- LACTATE DEHYDROGENASE [1]: 142.33 u/L
- LIPASE [1]: 10.67 u/L
- PHOSPHORUS [1]: 10.83 mg/dL
- POTASSIUM [1]: 6.5 MEQ/L
- SODIUM [1]: 141.87 MEQ/L
- TOTAL BILIRUBIN [1]: 0.13 mg/dL
- URIC ACID [1]: 1.4 mg/dL
- ABSOLUTE BASOPHIL [2]: 0 CELLS/uL
- ABSOLUTE EOSINOPHIL [2]: 118.67 CELLS/uL
- ABSOLUTE LYMPHOCYTE [2]: 12848.33 CELLS/uL
- ABSOLUTE SEGMENTED NEUTROPHIL [2]: 894.33 CELLS/uL
- BASOPHIL [2]: 0%
- EOSINOPHIL [2]: 0.67%
- ERYTHROCYTE COUNT [2]: 5.43 x10E6/uL
- HEMOGLOBIN [2]: 13.5 G/DL
- LEUKOCYTE COUNT [2]: 14.13 x10E3/uL
- LYMPHOCYTE [2]: 91%
- MEAN CORPUSCULAR HEMOGLOBIN [2]: 25.03 pg
- MEAN CORPUSCULAR HEMOGLOBIN CONCENTRATION [2]: 39.73 G/DL
- MEAN CORPUSCULAR VOLUME [2]: 62.93 fL
- MONOCYTE [2]: 2%
- NEUTROPHIL [2]: 6.33%
- NUCLEATED RED BLOOD CELLS [2]: 0 /100WBC
- PLATELET COUNT [2]: 1072.33 x10E3/uL
- ALANINE AMINOTRANSFERASE [2]: 70.67 u/L
- ALBUMIN [2]: 3.97 G/DL
- ALKALINE PHOSPHATASE [2]: 404.33 u/L
- ASPARTATE AMINOTRANSFERASE [2]: 114.67 u/L
- BLOOD UREA NITROGEN [2]: 13.67 mg/dL
- CARBON DIOXIDE [2]: 29.67 mmol/L
- CHLORIDE [2]: 102 MEQ/L
- CHOLESTEROL [2]: 63.33 mg/dL
- CREATINE PHOSPHOKINASE [2]: 910.33 u/L
- CREATININE [2]: 0.19 mg/dL
- GLUCOSE [2]: 178 mg/dL
- LACTATE DEHYDROGENASE [2]: 364 u/L
- LIPASE [2]: 10.33 u/L
- PHOSPHORUS [2]: 11.13 mg/dL
- POTASSIUM [2]: 6.49 MEQ/L
- SODIUM [2]: 141.5 MEQ/L
- TOTAL BILIRUBIN [2]: 0.23 mg/dL
- URIC ACID [2]: 1.67 mg/dL
- ABSOLUTE BASOPHIL [3]: 0 CELLS/uL
- ABSOLUTE EOSINOPHIL [3]: 106 CELLS/uL
- ABSOLUTE LYMPHOCYTE [3]: 14409.67 CELLS/uL
- ABSOLUTE SEGMENTED NEUTROPHIL [3]: 2126 CELLS/uL
- BASOPHIL [3]: 0%
- EOSINOPHIL [3]: 0.67%
- ERYTHROCYTE COUNT [3]: 5.2 x10E6/uL
- HEMOGLOBIN [3]: 13.4 G/DL
- LEUKOCYTE COUNT [3]: 16.7 x10E3/uL
- LYMPHOCYTE [3]: 86.33%
- MEAN CORPUSCULAR HEMOGLOBIN [3]: 25.73 pg
- MEAN CORPUSCULAR HEMOGLOBIN CONCENTRATION [3]: 40.6 G/DL
- MEAN CORPUSCULAR VOLUME [3]: 63.43 fL
- MONOCYTE [3]: 0.33%
- NEUTROPHIL [3]: 12.67%
- NUCLEATED RED BLOOD CELLS [3]: 0.33 /100WBC
- PLATELET COUNT [3]: 1182.33 x10E3/uL
- ALANINE AMINOTRANSFERASE [3]: 83.67 u/L
- ALBUMIN [3]: 3.93 G/DL
- ALKALINE PHOSPHATASE [3]: 534.33 u/L
- ASPARTATE AMINOTRANSFERASE [3]: 87 u/L
- BLOOD UREA NITROGEN [3]: 11 mg/dL
- CARBON DIOXIDE [3]: 27.67 mmol/L
- CHLORIDE [3]: 99.67 MEQ/L
- CHOLESTEROL [3]: 58 mg/dL
- CREATINE PHOSPHOKINASE [3]: 599.67 u/L
- CREATININE [3]: 0.18 mg/dL
- GLUCOSE [3]: 155.67 mg/dL
- LACTATE DEHYDROGENASE [3]: 259.33 u/L
- LIPASE [3]: 10.33 u/L
- PHOSPHORUS [3]: 10.97 mg/dL
- POTASSIUM [3]: 6.4 MEQ/L
- SODIUM [3]: 139.6 MEQ/L
- TOTAL BILIRUBIN [3]: 0.27 mg/dL
- URIC ACID [3]: 1.33 mg/dL
- ABSOLUTE BASOPHIL [4]: 0 CELLS/uL
- ABSOLUTE EOSINOPHIL [4]: 58.67 CELLS/uL
- ABSOLUTE LYMPHOCYTE [4]: 15278 CELLS/uL
- ABSOLUTE SEGMENTED NEUTROPHIL [4]: 1476.33 CELLS/uL
- BASOPHIL [4]: 0%
- EOSINOPHIL [4]: 0.33%
- ERYTHROCYTE COUNT [4]: 6 x10E6/uL
- HEMOGLOBIN [4]: 14.33 G/DL
- LEUKOCYTE COUNT [4]: 16.87 x10E3/uL
- LYMPHOCYTE [4]: 90.67%
- MEAN CORPUSCULAR HEMOGLOBIN [4]: 23.93 pg
- MEAN CORPUSCULAR HEMOGLOBIN CONCENTRATION [4]: 39.6 G/DL
- MEAN CORPUSCULAR VOLUME [4]: 60.4 fL
- MONOCYTE [4]: 0.33%
- NEUTROPHIL [4]: 8.67%
- NUCLEATED RED BLOOD CELLS [4]: 0 /100WBC
- PLATELET COUNT [4]: 1128.33 x10E3/uL
- ALANINE AMINOTRANSFERASE [4]: 55.67 u/L
- ALBUMIN [4]: 4.37 G/DL
- ALKALINE PHOSPHATASE [4]: 404.67 u/L
- ASPARTATE AMINOTRANSFERASE [4]: 96.33 u/L
- BLOOD UREA NITROGEN [4]: 20.33 mg/dL
- CARBON DIOXIDE [4]: 31 mmol/L
- CHLORIDE [4]: 101.67 MEQ/L
- CHOLESTEROL [4]: 55.33 mg/dL
- CREATINE PHOSPHOKINASE [4]: 902 u/L
- CREATININE [4]: 0.25 mg/dL
- GLUCOSE [4]: 169 mg/dL
- LACTATE DEHYDROGENASE [4]: 213.67 u/L
- LIPASE [4]: 10 u/L
- PHOSPHORUS [4]: 10.3 mg/dL
- POTASSIUM [4]: 5.85 MEQ/L
- SODIUM [4]: 142.7 MEQ/L
- TOTAL BILIRUBIN [4]: 0.27 mg/dL
- URIC ACID [4]: 1.8 mg/dL
